Experiment [1] in a line: (§1) Relative concentration required to cause 50% degradation of the [32P]-pC11U2C7.
Experiment [2] concerns the target T1, 2-5A-dependent ribonuclease (Homo sapiens, UniProt Q05823).
T1 sequence (Q05823 whole entry): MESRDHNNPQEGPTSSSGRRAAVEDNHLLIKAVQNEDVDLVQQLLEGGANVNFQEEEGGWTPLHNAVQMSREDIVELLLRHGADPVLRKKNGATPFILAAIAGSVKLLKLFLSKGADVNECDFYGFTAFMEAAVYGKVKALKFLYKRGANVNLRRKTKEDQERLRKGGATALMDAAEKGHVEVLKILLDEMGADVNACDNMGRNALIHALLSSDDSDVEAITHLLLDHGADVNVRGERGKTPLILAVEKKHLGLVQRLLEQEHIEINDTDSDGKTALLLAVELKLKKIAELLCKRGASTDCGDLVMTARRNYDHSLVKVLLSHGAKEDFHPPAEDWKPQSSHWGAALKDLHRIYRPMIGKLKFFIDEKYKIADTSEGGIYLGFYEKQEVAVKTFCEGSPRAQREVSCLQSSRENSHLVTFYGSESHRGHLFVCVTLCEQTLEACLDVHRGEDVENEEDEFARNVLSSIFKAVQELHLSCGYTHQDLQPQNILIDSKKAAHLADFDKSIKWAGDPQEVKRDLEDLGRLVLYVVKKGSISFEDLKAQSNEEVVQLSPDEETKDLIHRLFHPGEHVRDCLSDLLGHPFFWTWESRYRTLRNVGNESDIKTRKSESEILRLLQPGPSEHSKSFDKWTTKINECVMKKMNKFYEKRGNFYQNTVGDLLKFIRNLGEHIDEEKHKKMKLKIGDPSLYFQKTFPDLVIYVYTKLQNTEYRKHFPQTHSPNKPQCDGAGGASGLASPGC
Put plainly: Activation of purified recombinant human Ribonuclease L by the compound was measured as degradation of [32P]-pC11U2C7.

The target of experiment [3] is T1, 2-5A-dependent ribonuclease. Briefly: Activation of purified recombinant human Ribonuclease L by the compound was measured as degradation of poly (U) 3'[32P]p5'C3'p.
The nature of experiment [4]: Ratio of quotient (binding IC50)/(activation EC50 for the poly (U) assay).
Experiment [5] can be described thus: (§2) Relative concentration required to cause 50% degradation of the poly (U) 3'[32P]p5'C3'p.
Experiment [6] deals with T1, 2-5A-dependent ribonuclease. Briefly: Compound was tested for its binding ability, by displacement of p(A2'p)3A3'[32p]p5'Cp from recombinant human ribonuclease L.
Experiment [7] in a line: (§3) Relative concentration required to displace 50% of the p(A2'p)3A3'[32p]p5'Cp.
Experiment [8] can be described thus: as §2. The format is functional.
Experiment [9] is described as follows: as §1. It is filed as functional.
Experiment [10] in a line: as §3. The format is functional.

The pEC50 is −log10 of the EC50, conventionally taken in molar units. Usually pIC50 stands for the IC50 on a negative log10 scale, so that one unit is a factor of ten.

pEC50, pIC50: −log10 of the molar value.

For `Cc1nc(N)c2ncn([C@@H]3O[C@H](COP(=O)(O)O[C@@H]4[C@H](O)[C@@H](COP(=O)(O)O[C@@H]5[C@H](O)[C@@H](COP(=O)(O)OP(=O)(O)OP(=O)(O)O)O[C@H]5n5cnc6c(N)ncnc65)O[C@H]4n4cnc5c(N)ncnc54)[C@@H](O)[C@H]3O)c2n1`, the results for the Crel in [1], in experiment [5] and in experiment [7] were 1.5, 2 and 0.1, respectively. Besides, the pEC50 in experiment [2] is 9.52; in [3] it was 9.62. The Rn in [4] worked out at 0.06. Further, the negative logarithm of the IC50 (pIC50) in experiment [6] is 9.14.
Regarding `Cc1nc(N)c2ncn([C@@H]3O[C@H](COP(=O)(O)O[C@@H]4[C@H](O)[C@@H](COP(=O)(O)O[C@@H]5[C@H](O)[C@@H](COP(=O)(O)O)O[C@H]5n5cnc6c(N)ncnc65)O[C@H]4n4cnc5c(N)ncnc54)[C@@H](O)[C@H]3O)c2n1`, the pEC50 in experiment [2] was 9.70; in experiment [3], 9.89. In [4], the Rn was found to be 0.4. The pIC50 in experiment [6] was 8.59. The Crel was 0.9 in experiment [8], 1 in [9] and 0.4 in [10].
With `Cc1nc(N)c2ncn([C@@H]3O[C@H](COP(=O)(O)O[C@@H]4[C@H](O)[C@@H](COP(=O)(O)O[C@@H]5[C@H](O)[C@@H](COP(=O)(O)O)O[C@H]5n5cnc6c(N)nc(C)nc65)O[C@H]4n4cnc5c(N)nc(C)nc54)[C@@H](O)[C@H]3O)c2n1`, the Crel in experiment [1] worked out at 120; in experiment [5], 107; in experiment [7] it was 146. Also, the pEC50 in experiment [2] was 7.52; in [3], 7.80. Further, in experiment [4], the Rn worked out at 1.4. For the same compound, the pIC50 in [6] was 5.97.
Turning to `Cc1nc(N)c2ncn([C@@H]3O[C@H](COP(=O)(O)OP(=O)(O)OP(=O)(O)O)[C@@H](O)[C@H]3OP(=O)(O)OC[C@H]3O[C@@H](n4cnc5c(N)ncnc54)[C@H](OP(=O)(O)OC[C@H]4O[C@@H](n5cnc6c(N)ncnc65)[C@H](O)[C@@H]4O)[C@@H]3O)c2n1`, the Crel in experiment [1] was 4; in [5] it was 5; in [7], 3. For the same compound, the pEC50 in experiment [2] was 9.10; in experiment [3], 9.17. Also, the Rn in experiment [4] turned out to be 0.7. Moreover, the pIC50 in [6] is 7.62.
As to `Cc1nc(N)c2ncn([C@@H]3O[C@H](COP(=O)(O)O[C@@H]4[C@H](O)[C@@H](COP(=O)(O)O[C@@H]5[C@H](O)[C@@H](COP(=O)(O)OP(=O)(O)OP(=O)(O)O)O[C@H]5n5cnc6c(N)nc(C)nc65)O[C@H]4n4cnc5c(N)nc(C)nc54)[C@@H](O)[C@H]3O)c2n1`, the Crel in experiment [1] is 20; in experiment [5], 31; in [7], 15. Moreover, the pEC50 in experiment [2] is 8.40; in experiment [3], 8.34. Also, the Rn in experiment [4] came out at 0.5. Further, the pIC50 in experiment [6] is 6.98.
Take `Cc1nc(N)c2ncn([C@@H]3O[C@H](COP(=O)(O)O)[C@@H](O)[C@H]3OP(=O)(O)OC[C@H]3O[C@@H](n4cnc5c(N)ncnc54)[C@H](OP(=O)(O)OC[C@H]4O[C@@H](n5cnc6c(N)ncnc65)[C@H](O)[C@@H]4O)[C@@H]3O)c2n1`: the Crel amounted to 2.7 in experiment [1], 6 in [5] and 8 in [7]. The pEC50 in [2] was 9.15; in experiment [3] it was 9.08. For the same compound, in experiment [4], the Rn was determined as 1.4. In addition, the pIC50 in experiment [6] is 7.24.
Consider `Nc1ncnc2c1ncn2[C@@H]1O[C@H](COP(=O)(O)O[C@@H]2[C@H](O)[C@@H](COP(=O)(O)O[C@@H]3[C@H](O)[C@@H](COP(=O)(O)O)O[C@H]3n3cnc4c(N)ncnc43)O[C@H]2n2cnc3c(N)ncnc32)[C@@H](O)[C@H]1O`, for which the Crel in experiment [1], in [5] and in [7] was 1 each time. In addition, the Rn in [4] is 1.

Source of the values: ChEMBL document CHEMBL1133074, “2-Methyladenosine-Substituted 2',5'-oligoadenylates: conformations, 2-5A binding and catalytic activities with human ribonuclease L” (Bioorg Med Chem Lett, 2000).
